# Results reported in patent US8933075B2, “Compounds useful as antiviral agents, compositions, and methods of use” (priority 2010, dated 2015).
# Tested on: A/Udorn/72 (H3N2) virus
# Experiment: Plaque assay in MDCK cells: EC50 by reduction of plaque number
# Type: cell-based, influenza virus
# Settings: not given
row,SMILES,EC50 [nM]
1,COc1cccc(-c2cc(CCCO)c(/C=C3\SC(=S)N(C4C5CC6CC(C5)CC4C6)C3=O)[nH]2)c1 (stereo not shown) [Compound 233],< 100

# Same assay, conditions: MDCK
row,SMILES,EC50 [nM]
1,COc1cc(OC)cc(-c2cc(CCCOC(=O)[C@H](CCCNC(=O)OC(C)(C)C)NC(=O)OC(C)(C)C)c(/C=C3\SC(=S)N(C4CC5CCC4C5)C3=O)o2)c1 (stereo partly shown) [Compound 139],< 100
2,O=C1/C(=C/c2cn(-c3ccc([N+](=O)[O-])cc3)cn2)SC(=S)N1C1CCCCCCC1 [Compound 62],250 to 1000
3,O=C1/C(=C/c2ccc(-c3ccc(Cl)cc3)s2)SC(=S)N1C1C2CC3CC(C2)CC1C3 (stereo not shown) [Compound 317],< 100
4,O=C1/C(=C/c2cc(CCCO)c(-c3ccc(Cl)cc3)n2Cc2ccccc2)SC(=S)N1C1C2CC3CC(C2)CC1C3 (stereo not shown) [Compound 257],< 100
5,COC(=O)/C=C/c1ccc(/C=C2\SC(=S)N(C3C4CC5CC(C4)CC3C5)C2=O)o1 (stereo not shown) [Compound 224],< 100
6,COc1cc(-c2ccc(/C=C3\SC(=S)N(C4CC5CCC4C5)C3=O)o2)ccc1O (stereo not shown) [Compound 24],< 100
7,"O=C1/C(=C/c2cc3cc(Br)ccc3[nH]2)SC(=S)N1C1C2CC3CC(C2)CC1C3 (stereo not shown) [Compound 213, 3-adamantan-2-yl-5-(5-bromo-1H-indol-2-ylmethylene)-2-thioxo-thiazolidin-4-one]",< 100
8,CC(C)(C)OC(=O)N[C@@H](CC(N)=O)C(=O)OCCCC#Cc1cc(-c2cccc(Cl)c2)sc1/C=C1\SC(=S)N(C2C3CC4CC(C3)CC2C4)C1=O (stereo partly shown) [Compound 312],< 100
9,Cn1c(-c2ccc(Cl)cc2)cc(CCCO)c1/C=C1\SC(=S)N(C2C3CC4CC(C3)CC2C4)C1=O (stereo not shown) [Compound 259],> 1000
10,COc1cccc(-c2cc(CCCO)c(/C=C3\SC(=S)N(C4CC5CCC4C5)C3=O)[nH]2)c1 (stereo not shown) [Compound 232],< 100
11,COc1ccc(-c2ccc(/C=C3\SC(=S)N(C4CC5CCC4C5)C3=O)o2)cc1OCC(=O)N1CCC[C@H]1C(=O)O (stereo partly shown) [Compound 80],< 100
12,COc1cc(OC)cc(-c2cc(CCCC(C(=O)O)C(=O)O)c(/C=C3\SC(=S)N(C4CC5CCC4C5)C3=O)o2)c1 (stereo not shown) [Compound 134],< 100
13,COc1cc(OC)cc(-c2cc(CCCN(CC(=O)O)CC(=O)O)c(/C=C3\SC(=S)N(C4CC5CCC4C5)C3=O)o2)c1 (stereo not shown) [Compound 133],100 to 250
14,Cn1c(/C=C2\SC(=S)N(C3CC4CCC3C4)C2=O)cc(C#CCCCO)c1-c1ccc(Cl)cc1 (stereo not shown) [Compound 265],< 100
15,CC(C)(C)OC(=O)N[C@@H](CC(N)=O)C(=O)N1CCN(CCCCCc2cc(-c3ccc(Cl)cc3)oc2/C=C2\SC(=S)N(C3C4CC5CC(C4)CC3C5)C2=O)CC1 (stereo partly shown) [Compound 373],< 100
16,O=C1/C(=C/c2oc(-c3ccc(F)cc3)cc2CCCN2CCOCC2)SC(=S)N1C1C2CC3CC(C2)CC1C3 (stereo not shown) [Compound 183],< 100
17,"O=C1/C(=C/c2ccco2)SC(=S)N1C1CCCCCC1 [Compound 219, (Z)-3-cycloheptyl-5-(furan-2-ylmethylene)-2-thioxothiazolidin-4-one]",250 to 1000
18,O=C1/C(=C/c2oc(-c3ccc(Cl)cc3)cc2CCCN2CCOCC2)SC(=S)N1C1C2CC3CC(C2)CC1C3 (stereo not shown) [Compound 184],< 100
19,O=C1/C(=C/c2ccc(-c3ccc(Cl)cc3)s2)SC(=S)N1C1CC2CCC1C2 (stereo not shown) [Compound 316],< 100
20,O=C1/C(=C/c2ccc(-c3ccc(O)cc3)o2)SC(=S)N1C1C2CC3CC(C2)CC1C3 (stereo not shown) [Compound 15],< 100
21,Cn1c(-c2ccc(Cl)cc2)cc(CCCO)c1/C=C1\SC(=S)N(C2CC3CCC2C3)C1=O (stereo not shown) [Compound 258],> 1000

row,SMILES,EC50 [nM]
1,CC(C)(C)OC(=O)N[C@@H](CC(N)=O)C(=O)OCCCc1cc(-c2ccc(F)cc2)oc1/C=C1\SC(=S)N(C2CC3CCC2C3)C1=O (stereo partly shown) [Compound 147],< 100
2,COc1cccc(-c2cc(CCCCCO)c(/C=C3\SC(=S)N(C4CC5CCC4C5)C3=O)s2)c1 (stereo not shown) [Compound 280],< 100
3,O=C1/C(=C/c2oc(-c3cccc(Cl)c3)cc2CCCCCO)SC(=S)N1C1CC2CCC1C2 (stereo not shown) [Compound 345],< 100
4,COc1cc(OC)cc(-c2cc(CCCOC(=O)[C@@H](N)Cc3ccccc3)c(/C=C3\SC(=S)N(C4CC5CCC4C5)C3=O)o2)c1 (stereo partly shown) [Compound 153],< 100
5,O=C1/C(=C/c2sc(-c3ccc(Cl)cc3)cc2CCCCCO)SC(=S)N1C1C2CC3CC(C2)CC1C3 (stereo not shown) [Compound 281],< 100
6,COCOc1cc(-c2ccc(/C=C3\SC(=S)N(C4CC5CCC4C5)C3=O)o2)cc(OC)c1OCOC (stereo not shown) [Compound 26],< 100
7,O=C1/C(=C/c2ccc(-c3ccc(-c4ccccc4)cc3)o2)SC(=S)N1C1CC2CCC1C2 (stereo not shown) [Compound 226],< 100
8,COc1cc(OC)cc(-c2cc(CCCCCO)c(/C=C3\SC(=S)N(C4C5CC6CC(C5)CC4C6)C3=O)o2)c1 (stereo not shown) [Compound 110],< 100
9,COc1ccc(-c2ccc(/C=C3\SC(=S)N(C4C5CC6CC(C5)CC4C6)C3=O)o2)cc1 (stereo not shown) [Compound 9],< 100
10,O=C1/C(=C/c2sc(-c3ccc(Cl)cc3)cc2CCCO)SC(=S)N1C1CC2CCC1C2 (stereo not shown) [Compound 276],< 100
11,COC(=O)COc1ccc2c(O)c(-c3ccc(/C=C4\SC(=S)N(C5CC6CCC5C6)C4=O)o3)c(=O)oc2c1 (stereo not shown) [Compound 318],< 100
12,O=C1/C(=C/c2[nH]c(-c3ccc(Cl)cc3)cc2CCCCCO)SC(=S)N1C1C2CC3CC(C2)CC1C3 (stereo not shown) [Compound 236],< 100
13,O=C1/C(=C/c2cc(CCCCCO)c(-c3ccc(Cl)cc3)s2)SC(=S)N1C1C2CC3CC(C2)CC1C3 (stereo not shown) [Compound 283],< 100
14,COCOc1cc(=O)oc2ccc(-c3ccc(/C=C4\SC(=S)N(C5CC6CCC5C6)C4=O)o3)cc12 (stereo not shown) [Compound 76],250 to 1000
15,"COc1cc(OC)cc(-c2cc(CCCOC[C@@H](O)CO)c(/C=C3\SC(=S)N(C4CC5CCC4C5)C3=O)o2)c1 (stereo partly drawn) [Compound 202, (Z)-3-(bicyclo[2.2.1]heptan-2-yl)-5-((3-(3-((S)-2,3-dihydroxypropoxy)propyl)-5-(3′,5′-dimethoxy-phenyl)-furan-2-yl)methylene)-2-thioxothiazolidin-4-one]",< 100
16,O=C1/C(=C/c2oc(-c3ccc(Cl)cc3)cc2CCCCCO)SC(=S)N1C1C2CC3CC(C2)CC1C3 (stereo not shown) [Compound 334],< 100
17,O=C1/C(=C/c2oc(-c3ccc(C(F)(F)F)cc3)cc2CCCCCO)SC(=S)N1C1C2CC3CC(C2)CC1C3 (stereo not shown) [Compound 338],< 100
18,COc1ccc(-c2ccc(/C=C3\SC(=S)N(C4CC5CCC4C5)C3=O)o2)cc1OCC(=O)N[C@@H](CC(C)C)C(=O)O (stereo partly shown) [Compound 78],< 100
19,O=C1/C(=C/c2[nH]c(-c3ccc(Cl)cc3)cc2CCCCCO)SC(=S)N1C1CC2CCC1C2 (stereo not shown) [Compound 230],< 100
20,COc1cc(OC)cc(-c2cc(CCCNC(=O)[C@H](Cc3ccc(OC(C)(C)C)cc3)NC(=O)OC(C)(C)C)c(/C=C3\SC(=S)N(C4CC5CCC4C5)C3=O)o2)c1 (stereo partly shown) [Compound 160],< 100
21,COc1cc(OC)cc(-c2cc(CCCOC(=O)[C@@H](N)c3ccccc3)c(/C=C3\SC(=S)N(C4CC5CCC4C5)C3=O)o2)c1 (stereo partly shown) [Compound 154],< 100

row,SMILES,EC50 [nM]
1,COc1cccc(-c2cc(CCCO)c(/C=C3\SC(=S)N(C4C5CC6CC(C5)CC4C6)C3=O)o2)c1 (stereo not shown) [Compound 352],< 100
2,NCCCc1cc(-c2ccc(F)cc2)oc1/C=C1\SC(=S)N(C2C3CC4CC(C3)CC2C4)C1=O (stereo not shown) [Compound 126],< 100
3,O=C1/C(=C/c2sc(-c3ccc(Cl)cc3)cc2C#CCCCO)SC(=S)N1C1CC2CCC1C2 (stereo not shown) [Compound 291],< 100
4,O=C1/C(=C/c2[nH]c(-c3ccc(Cl)cc3)cc2CCCO)SC(=S)N1C1CC2CCC1C2 (stereo not shown) [Compound 229],< 100
5,COc1ccc2c(O)c(-c3ccc(-c4ccc(/C=C5\SC(=S)N(C6CC7CCC6C7)C5=O)o4)cc3)c(=O)oc2c1 (stereo not shown) [Compound 227],< 100
6,COc1cccc(-c2cc(CCCCCOC(=O)[C@H](CC(N)=O)NC(=O)OC(C)(C)C)c(/C=C3\SC(=S)N(C4C5CC6CC(C5)CC4C6)C3=O)s2)c1 (stereo partly shown) [Compound 310],< 100
7,COc1ccc2oc(=O)c(-c3ccc(/C=C4\SC(=S)N(C5CC6CCC5C6)C4=O)o3)c(O)c2c1 (stereo not shown) [Compound 69],100 to 250
8,COc1cc(OC)cc(-c2cc(CCCCCCO)c(/C=C3\SC(=S)N(C4CC5CCC4C5)C3=O)o2)c1 (stereo not shown) [Compound 111],< 100
9,CCOC(=O)c1c(F)ccc(-c2ccc(/C=C3\SC(=S)N(C4CCCCCCC4)C3=O)o2)c1F [Compound 46],< 100
10,O=C1/C(=C/c2cc(C#CCCCO)c(-c3ccc(Cl)cc3)s2)SC(=S)N1C1C2CC3CC(C2)CC1C3 (stereo not shown) [Compound 287],< 100
11,O=C1/C(=C/c2cn(-c3ccc([N+](=O)[O-])cc3)cn2)SC(=S)N1C1CCCCCCCCCCC1 [Compound 64],< 100
12,O=C1/C(=C/c2sc(-c3ccc(Cl)cc3)cc2-c2ccc(Cl)cc2)SC(=S)N1C1CC2CCC1C2 (stereo not shown) [Compound 274],< 100
13,COc1cc(OC)cc(-c2cc(CCCCCCO)c(/C=C3\SC(=S)N(C4C5CC6CC(C5)CC4C6)C3=O)o2)c1 (stereo not shown) [Compound 112],< 100
14,COc1cccc(-c2c(C#CCCCOC(=O)[C@H](CC(N)=O)NC(=O)OC(C)(C)C)cc(/C=C3\SC(=S)N(C4C5CC6CC(C5)CC4C6)C3=O)n2C)c1 (stereo partly shown) [Compound 270],< 100
15,O=C1/C(=C/c2oc(-c3ccc(F)cc3)cc2CCCCCO)SC(=S)N1C1CC2CCC1C2 (stereo not shown) [Compound 105],< 100
16,"O=C1/C(=C/c2coc3ccc(Br)cc3c2=O)SC(=S)N1C1C2CC3CC(C2)CC1C3 (stereo not shown) [Compound 210, 3-adamantan-2-yl-5-(6-bromo-4-oxo-4H-chromen-3-ylmethylene)-2-thioxo-thiazolidin-4-one]",< 100
17,COc1ccc(-c2ccc(/C=C3\SC(=S)N(C4C5CC6CC(C5)CC4C6)C3=O)o2)cc1C(=O)O (stereo not shown) [Compound 34],< 100
18,O=C1/C(=C/c2sc(-c3cccc(Cl)c3)cc2C#CCCCO)SC(=S)N1C1C2CC3CC(C2)CC1C3 (stereo not shown) [Compound 285],< 100
19,O=C1/C(=C/c2ccc(-c3ccc(Cl)cc3)o2)SC(=S)N1C1CCCCC1 [Compound 47],< 100
20,O=C1/C(=C/c2oc(-c3ccc(F)cc3)cc2CCCN2CCNCC2)SC(=S)N1C1CC2CCC1C2 (stereo not shown) [Compound 187],< 100
21,COc1cc(OC)cc(-c2ccc(/C=C3\SC(=S)N(C4C5CC6CC(C5)CC4C6)C3=O)[nH]2)c1 (stereo not shown) [Compound 59],< 100
